Results on 17 compounds are retold here after patent US20220056018A1, “SREBP INHIBITORS COMPRISING A THIOPHENE CENTRAL RING” (Capulus Therapeutics, LLC, priority 2019, published 2022).

Data set [1] in a line: Stability in mouse liver microsomes. Format: in vitro ADME. The method, then:
(§1) Compounds were evaluated for stability in human liver microsomes. A 10 mM stock solution of the compound being evaluated was prepared in DMSO and diluted with water:acetonitrile (1:1) to a concentration of 1 mM. A working concentration of 100 μM was prepared by further dilution with water:acetonitrile (1:1). To make the preincubation mixture, 2.5 μL of the diluted compound was combined with 75 μL of human liver microsomes at 3.33 mg/mL, and 85 μL of 100 mM potassium phosphate buffer, and this mixture was pre-incubated for 10 min at 37° C. To make the 60 minute mixture without cofactor, 32.5 μL of the preincubation mixture was combined with 17.5 μL of 100 mM potassium phosphate buffer and incubated for 60 min at 37° C. To make the 0 min sample with cofactor (NADPH), 16.25 μL of the preincubation mixture was combined with 200 μL of acetonitrile containing internal standard and 8.75 μL of cofactor (NADPH). To make the incubation mixture, 62 μL of cofactor (2.85 mM) was combined with the remaining incubation mixture, and incubated for 60 min at 37° C. To prepare the sample mixture to be evaluated, 25 μL incubation mixture was combined with 200 μL of acetonitrile containing internal standard and vortexed for 5 min at 1200 rpm, then centrifuged for 10 min at 4000 rpm. The supernatant was diluted 2 fold with water and injected on LC-MS/MS. The sample mixture was evaluated by LC-MS/MS using 10 mM ammonium acetate with 0.100 FA as the aqueous mobile phase, and methanol as the organic mobile phase.
Half-Life Mouse Microsomes:
Compounds were evaluated in mouse liver microsomes following a similar procedure as described above for human liver microsomes. A similar procedure could be used to evaluate compounds in rat liver microsomes.
(Microsomes from liver hold many membrane-bound enzymes, among them those of drug oxidation.)

The nature of data set [2]: Stability in human liver microsomes. The following applies: 37° C., NADPH. Format: in vitro ADME. The method, then:
Half-Life Human Microsomes:
as §1

The subject of another data set is SREBP. Briefly: Reporter Screening Assay (SRE-luciferase reporter, HepG2). The class given is cell-based. The note with it: Homo sapiens; SRE-luciferase reporter HepG2 cells, 24 hours, 0.01 uM to 10 uM; read-out: I: Reporter Screening Assay (Ave EC50 (nM)). The method, then:
Reporter Screening Assay: This assay was used to evaluate the effect on transcriptional activity SREBP of selected compounds using an SRE-luciferase reporter construct. On day 1, 10,000 cells were seeded in a 96 well (white) plate as per the plate map in Growth media without antibiotics. Cells were incubated at 37° C. for 8 hours. After 8 hours, cells were washed with DPBS for complete removal of FBS. DPBS was completely removed and Growth media was replaced with phenol free treatment medium (90 μl) with different FBS concentrations. The cells were then incubated at 37° C. for 24 hours with varying doses (0.01 uM to 10 uM) of compounds. Then a Luciferase assay was performed.
Reagents for performing Luciferase assay were stored at −20° C. To a tube of lyophilized assay substrate was added 1 mL Substrate Solvent and mixed well. The Substrate tube after reconstitution was covered with aluminum foil so as to keep it protected from light. The assay buffer was thawed to room temperature. To 20 mL Assay Buffer was added 200 μL of reconstituted 100× Substrate and mixed well. The reconstituted substrate as well as the assay solution (buffer+substrate) was protected from light throughout the procedure by keeping it covered with aluminum foil. Using a multi-channel pipette, 100 μL Assay Solution (buffer+substrate) was added directly to each sample well in Plate 1, which was incubated for 30 min (plate was covered with aluminum foil). After 30 min incubation, the plate was read for total luminescence. Each well was read for 2 seconds in a plate luminometer. (Microplate reader Envision Microplate reader from Perkin Elmer). Precaution was taken to incubate plate exactly for 30 min prior to reading on the plate reader.
SREBPv1 Reporter cell line: HepG2—#32251. Growth Medium: MEM (Corning 10-010), 10% FBS, 1% GlutaMax (Invitrogen Catalog #35050061), […] (Invitrogen Catalog # A1113803) and 1% Penicillin-Streptomycin (Pen-Strep). Treatment Media: Phenol-free MEM (Invitrogen Catalog #51200-038) and 1% GlutaMax (Invitrogen Catalog #35050061). Luciferase Assay: LightSwitch Luciferase Assay Kit (Catalog #32032). LDH assay: Pierce LDH Cytotoxicity Assay Kit (Catalog # SD249616).
A general note: Reporter assays use an easily measured gene product as a stand-in for the process of interest.

By EC50 is commonly meant the midpoint of the concentration-response curve. Regarding `CC(C)(C)c1cc(-c2csc(-c3ccc(S(C)(=O)=O)cc3)c2)ccn1` [Compound I-8723, 2-(tert-butyl)-4-(5-(4-(methylsulfonyl)phenyl)thiophen-3-yl)pyridine], the “percent parent remaining after 60 min in liver microsomes” value (from here on “percent parent remaining after 60 min”) in data set [1] is given as “+++ (>60.1 = +++)”. In addition, the “percent of compound remaining after 60 min in human liver microsomes” value (“percent of compound remaining” below) in data set [2] was “+++ (>60.1 = +++)”. Besides, in the data set with SREBP, the EC50 is more than 500 nM.

Take `CC(C)S(=O)(=O)c1ccc(-c2cc(-c3ccnc(C(C)(C)C)c3)cs2)cc1` [Compound I-8728, 2-(tert-butyl)-4-(5-(4-(isopropylsulfonyl)phenyl)thiophen-3-yl)pyridine]: the “percent parent remaining after 60 min” value in data set [1] was “+++ (>60.1 = +++)”. The “percent of compound remaining” value in data set [2] was “++ (30.1-60 = ++)”. In addition, in the data set on SREBP, the EC50 lay in the range of 250 to 500 nM.

With `CC(C)(C)c1cc(-c2csc(-c3ccc(S(=O)(=O)CC4CCCC4)cc3)c2)ccn1` [Compound I-8729, 2-(tert-butyl)-4-(5-(4-((cyclopentylmethyl)sulfonyl)phenyl)thiophen-3-yl)pyridine], in data set [1], the “percent parent remaining after 60 min” value is recorded as “+ (0-30 = +)”. Moreover, the “percent of compound remaining” value in data set [2] is on record as “+ (0-30 = +)”. Also, the EC50 in the data set on SREBP was more than 500 nM.

With `CC(C)NC(=O)Nc1ccc(-c2cc(-c3ccnc(C(C)(C)C)c3)cs2)c(Cl)c1` [Compound I-8731, 1-(4-(4-(2-(tert-butyl)pyridin-4-yl)thiophen-2-yl)-3-chlorophenyl)-3-isopropylurea], the “percent parent remaining after 60 min” value in data set [1] is “++ (30.1-60 = ++)”. For the same compound, the “percent of compound remaining” value in data set [2] is recorded as “++ (30.1-60 = ++)”. Besides, the concentration for a half-maximal effect (EC50) with SREBP is less than 249 nM.

Consider `CCOC(=O)Nc1ccc(-c2cc(-c3ccnc(C(C)(C)C)c3)cs2)c(Cl)c1` [Compound I-8735, Ethyl (4-(4-(2-(tert-butyl)pyridin-4-yl)thiophen-2-yl)-3-chlorophenyl)carbamate], for which, in data set [1], the “percent parent remaining after 60 min” value is “+++ (>60.1 = +++)”. Besides, in data set [2], the “percent of compound remaining” value is recorded as “+++ (>60.1 = +++)”. Moreover, the EC50 in the data set with SREBP lay within 250 to 500 nM.

Consider `CC(C)(C)c1cc(-c2csc(-c3ccc(NC(=O)N4CCC(O)CC4)cc3Cl)c2)ccn1` [Compound I-8736, N-(4-(4-(2-(tert-butyl)pyridin-4-yl)thiophen-2-yl)-3-chlorophenyl)-4-hydroxypiperidine-1-carboxamide], for which the “percent parent remaining after 60 min” value in data set [1] is on record as “+++ (>60.1 = +++)”. Also, the “percent of compound remaining” value in data set [2] is listed as “+++ (>60.1 = +++)”. Moreover, in the data set with SREBP, the concentration giving a half-maximal response (EC50) was in the range of 250 to 500 nM.

Take `CC(C)OC(=O)Nc1ccc(-c2cc(-c3ccnc(C(C)(C)C)c3)cs2)c(Cl)c1` [Compound I-8741, Isopropyl (4-(4-(2-(tert-butyl)pyridin-4-yl)thiophen-2-yl)-3-chlorophenyl)carbamate]: in data set [1], the “percent parent remaining after 60 min” value was “+++ (>60.1 = +++)”. In addition, the “percent of compound remaining” value in data set [2] is “+++ (>60.1 = +++)”. Further, the EC50 in the data set with SREBP is less than 249 nM.

For `CC(C)(C)c1cc(-c2csc(-c3ccc(NC(=O)NC4CCC(O)CC4)cc3Cl)c2)ccn1` (stereo not drawn) [Compound I-8742, 1-(4-(4-(2-(tert-butyl)pyridin-4-yl)thiophen-2-yl)-3-chlorophenyl)-3-(4-hydroxycyclohexyl)urea], in data set [1], the “percent parent remaining after 60 min” value is “+++ (>60.1 = +++)”. Besides, in data set [2], the “percent of compound remaining” value is on record as “+++ (>60.1 = +++)”. The 50% effective concentration (EC50) in the data set with SREBP is more than 500 nM.

For `CC(C)(C)c1cc(-c2csc(-c3ccc(NC(=O)NC4CCNCC4)cc3Cl)c2)ccn1` [Compound I-8755, 1-(4-(4-(2-(tert-butyl)pyridin-4-yl)thiophen-2-yl)-3-chlorophenyl)-3-(piperidin-4-yl)urea], in data set [1], the “percent parent remaining after 60 min” value is recorded as “+++ (>60.1 = +++)”. Besides, the “percent of compound remaining” value in data set [2] was “+++ (>60.1 = +++)”. Also, in the data set with SREBP, the EC50 was more than 500 nM.

Regarding `CC(C)(C)c1cc(-c2csc(-c3ccc(NC(=O)NCCN4CCCC4)cc3Cl)c2)ccn1` [Compound I-8761, 1-(4-(4-(2-(tert-butyl)pyridin-4-yl)thiophen-2-yl)-3-chlorophenyl)-3-(2-(pyrrolidin-1-yl)ethyl)urea], the “percent parent remaining after 60 min” value in data set [1] was “+++ (>60.1 = +++)”. Besides, in data set [2], the “percent of compound remaining” value is on record as “+++ (>60.1 = +++)”. The EC50 in the data set with SREBP was more than 500 nM.

Consider `CC(C)(C)c1cc(-c2csc(-c3ccc(NC(=O)OCCN4CCCC4)cc3Cl)c2)ccn1` [Compound I-8762, 2-(pyrrolidin-1-yl)ethyl (4-(4-(2-(tert-butyl)pyridin-4-yl)thiophen-2-yl)-3-chlorophenyl)carbamate], for which the “percent parent remaining after 60 min” value in data set [1] is given as “+ (0-30 = +)”. For the same compound, the “percent of compound remaining” value in data set [2] is listed as “+++ (>60.1 = +++)”. In addition, in the data set on SREBP, the half-maximal effective concentration (EC50) is more than 500 nM.

For the compound `O=S(=O)(Nc1ccc(-c2cc(-c3ccnc(C4(CO)CC4)c3)cs2)c(Cl)c1)NC1CC1` [Compound I-9090], the “percent parent remaining after 60 min” value in data set [1] is “++ (30.1-60 = ++)”. In addition, the “percent of compound remaining” value in data set [2] is recorded as “++ (30.1-60 = ++)”.

Regarding `CS(=O)(=O)Nc1ccc(-c2cc(-c3ccnc(O[C@@H]4CCC[C@@H]4O)c3)cs2)c(Cl)c1` [Compound I-9111, N-(3-chloro-4-(4-(2-(((1R,2S)-2-hydroxycyclopentyl)oxy)pyridin-4-yl)thiophen-2-yl)phenyl)methanesulfonamide], in data set [1], the “percent parent remaining after 60 min” value was “+++ (>60.1 = +++)”. In addition, the “percent of compound remaining” value in data set [2] is reported as “+++ (>60.1 = +++)”.

With `CS(=O)(=O)Nc1ccc(-c2cc(-c3ccnc(OCCC4(O)COC4)c3)cs2)c(Cl)c1` [Compound I-9112, N-(3-chloro-4-(4-(2-(2-(3-hydroxyoxetan-3-yl)ethoxy)pyridin-4-yl)thiophen-2-yl)phenyl)methanesulfonamide], the “percent parent remaining after 60 min” value in data set [1] is given as “+++ (>60.1 = +++)”. Moreover, the “percent of compound remaining” value in data set [2] is “+++ (>60.1 = +++)”.

On to `CS(=O)(=O)Nc1ccc(-c2cc(-c3ccnc(OCC4COCCO4)c3)cs2)c(Cl)c1` (stereo not drawn) [Compound I-9113, N-(4-(4-(2-((1,4-dioxan-2-yl)methoxy)pyridin-4-yl)thiophen-2-yl)-3-chlorophenyl)methanesulfonamide], for which, in data set [1], the “percent parent remaining after 60 min” value is “+++ (>60.1 = +++)”. Moreover, the “percent of compound remaining” value in data set [2] is recorded as “++ (30.1-60 = ++)”.

On to `CC(C)(CO)c1cc(-c2cc(-c3ccc(NC(=O)OC4CC4)cc3Cl)cs2)ccn1` [Compound I-9161, Cyclopropyl(3-chloro-4-(5-(2-(1-hydroxy-2-methylpropan-2-yl)pyridin-4-yl)thiophen-3-yl)phenyl)carbamate], for which, in data set [1], the “percent parent remaining after 60 min” value is “++ (30.1-60 = ++)”. The “percent of compound remaining” value in data set [2] is given as “++ (30.1-60 = ++)”.

For the compound `CC(C)NS(=O)(=O)Nc1ccc(-c2csc(-c3ccnc(C(C)(C)CO)c3)c2)c(Cl)c1` [Compound I-9162, 2-(4-(4-(2-chloro-4-(((isopropylamino)thio)amino)phenyl)thiophen-2-yl)pyridin-2-yl)-2-methylpropan-1-ol, S,S-dioxide], the “percent parent remaining after 60 min” value in data set [1] is reported as “+++ (>60.1 = +++)”. Further, the “percent of compound remaining” value in data set [2] was “+ (0-30 = +)”.
